# Literature values, collected in patent publication US20130023494A1, “MODULATORS OF THE GPR119 RECEPTOR AND THE TREATMENT OF DISORDERS RELATED THERETO” (ARENA PHARMACEUTICALS, INC., priority 2010, published 2013).
# Columns and labels:
# GPR119 = conditions: combined administration with a DPP-IV inhibitor, compared with either agent alone; cited from earlier work
# [1] = tested on: human patients suffering with type 2 diabetes; conditions: oral administration, human patients with type 2 diabetes; cited from earlier work
# humans = conditions: cited from earlier work
compound,measurement,setting,value
"CC(C)c1noc(C2CCN(c3ncnc(Nc4ccc(S(C)(=O)=O)cc4F)c3[N+](=O)[O-])CC2)n1 [Compound B111, (2-Fluoro-4-methanesulfonyl-phenyl)-{6-[4-(3-isopropyl-[1,2,4]oxadiazol-5-yl)-piperidin-1-yl]-5-nitro-pyrimidin-4-yl}-amine]",glucose tolerance,GPR119,improved glucose tolerance to a significantly greater degree than either agent alone
same,plasma GLP-1 levels,GPR119,acutely increased plasma GLP-1 levels
"N[C@@H](CC(=O)N1CCn2c(nnc2C(F)(F)F)C1)Cc1cc(F)c(F)cc1F [sitagliptin, 3(R)-amino-1-[3-(trifluoromethyl)-5,6,7,8-tetrahydro[1,2,4]triazolo[4,3-a]pyrazin-7-yl]-4-(2,4,5-trifluorophenyl)butan-1-one]","fasting glucose, postprandial glucose excursion and HbA1c levels",[1],reduce fasting glucose and postprandial glucose excursion in association with significantly reduced HbA1c levels
PYY3-36: generated from PYY1-36 by cleavage of the N-terminal Tyr and Pro residues by dipeptidyl peptidase IV; Y2R selective agonist,reduction of food intake,"humans; human studies, infusion, over 24 hours",33%
same,time of decline to basal levels,"humans; human, after infusion",≤ 30 min
same,time to peak serum levels of PYY3-36,"humans; human, infusion to reach normal postprandial circulatory concentrations",≤ 15 min
"N#C[C@@H]1CCCN1C(=O)CNC12CC3CC(CC(O)(C3)C1)C2 [vildagliptin, 1-[2-(3-hydroxyadamant-1-ylamino)acetyl]pyrrolidine-2(S)-carbonitrile]","fasting glucose, postprandial glucose excursion and HbA1c levels",[1],reduce fasting glucose and postprandial glucose excursion in association with significantly reduced HbA1c levels
